Assay results: patent US4277489A, “1(p-Chlorobenzoyl)-5-methoxy-2-methyl indole-3-acetic acid-3-oxo-isobenzofuranyl ester and pharmaceutical use thereof” (priority 1979, dated 1981)
Read-outs that look alike come from different tables or passages of the source.

Legend:
Type in all cases: in vivo
[1] = test system: rat; assay: Ulcerogen activity in the fasted rat (autopsic examination of stomach, jejunum, large intestine and liver); conditions: 5 mg/kg
[2] = test system: mouse; assay: Antalgic activity in the mouse: tail-compression test (Bianchi C. test); conditions: oral; for Time for which the algic stimulus is tolerated: two hours from administration, equal doses
Procedure: The time elapsing between the algic stimulus and the reaction of the mouse trying to get out of said stimulus was determined in seconds.
The measure was effected at the times 0, 1, 2, 3 hours from administation of the derivative object of the present invention (Product B) and from administration of the comparison compound (Product A).
1--two lots of control animals: 0.5 ml/animal of mucilage of 5% arabic gum;
2--one lot treated with Product A--4 mg/kg;
3--one lot treated with Product A--7 mg/kg;
4--one lot treated with Product B--4 mg/kg;
5--one lot treated with Product B--7 mg/kg.

[3] = test system: paw-oedema, induced by means of sub-plantar injection of carrageenin; assay: Anti-phlogistic activity: carrageenin-induced paw-oedema in the rat; conditions: oral
Procedure: In order to show the therapeutical activity of the derivative, which is an object of this invention, a research was carried out firstly on the anti-phlogistic activity as compared with the one of Product A.
The research was carried out in the rat by using the test of paw-oedema, induced by means of sub-plantar injection of carrageenin in a 1% solution. 0.1 ml of this solution was injected to each animal.
One hour before inoculation of the oedemigenous agent, the two test drugs were administered orally (gastric probe) to the different groups, according to the experimental scheme, and contemporaneously were measured, with a base value, the volume of the right untreated paw.
The treatment was effected on lots of five male animals of average weight of 240-270 g., according to the following experimental scheme:
1--three lots of control animals: 10 ml/kg mucilage of arabic gum;
2--one lot of animals treated with Product A--5 mg/kg;
3--one lot of animals treated with Product A--5.3 mg/kg;
4--one lot of animals treated with Product A--7 mg/kg;
5--one lot of animals treated with Product B--5 mg/kg;
6--one lot of animals treated with Product B--5.3 mg/kg;
7--one lot of animals treated with Product B--7 mg/kg.

[4] = test system: mouse; assay: Acute toxicity in the mouse, orally; conditions: for Autopsical examination (gastroenteric hyperemia, ulcers): oral
Text: (§1) Firstly, the acute and subacute toxicity in the mouse orally has been tested.
(§2) Table 1- Acute toxicity, in the mouse, of 1-(p-chlorobenzoyl)5-methoxy-2-methylindole-3-acetic acid (Product A) and of 1-(p-chlorobenzoyl) -5-methoxy-2-methylindole-3-acet-3-oxo-1-isobenzofuranyl ester derivative (Product B)

[5] = Acute toxicity in the mouse, orally; conditions: in vivo, oral, read-out: Mortality at 10th day %
Text: as §1, §2

[6] = test system: rat; assay: Ulcerogen activity in the fasted rat (autopsic examination of stomach, jejunum, large intestine and liver); conditions: 5 mg/kg; remark: listed apart in the source
Procedure: In order to complete the picture of the possible ulcerogen activity, in the rat, of the product which is the object of this invention, a further research on the rat as against Product A, was performed.
Both the test molecules were suspended in 5% arabic gum and taken to solution.
The pharmacological treatment at the standard dose of 5 mg/kg was effected orally by means of a gastro-oesophageal probe.
The groups of animals were treated after 9, 24, 31, 50, 53, 56, 60 and 70 hours from beginning of the fasting. During the fasting period the animals received subcutaneously, 2 ml/die/animal of a 5% glucose solution in […]. The animals were sacrificed, by decapitation, at 48 and 72 hours from beginning of the fasting; there were drawn for autopsic examination, jejunum and large intestine, which were examined microscopically in order to detect the presence of any possible ulcerations.

[7] = oral, sacrificed at 72 hours from beginning of fasting (8 administrations)
[8] = oral, sacrificed at 48 hours from beginning of fasting (3 administrations)

Row | SMILES | Stomach, autopsic examination ([1]; in vivo, po) | Antalgic activity compared with the comparison product ([2]; mouse, 4 and 7 mg/kg) | Time for which the algic stimulus is tolerated [2] [s] | Anti-phlogistic effect (onset and extent) compared with the comparison product [3] | Anti-phlogistic activity compared with Product A ([3]; doses being equal (5, 5.3, 7 mg/kg), within the first three hours) | Toxic component compared with the free acid ([4]; in vivo) | Autopsical examination (gastroenteric hyperemia, ulcers) [4] | mortality at 240 h ([5]; dose 10 mg/kg) [%] | mortality at 240 h ([5]; dose 18 mg/kg) [%] | mortality at 240 h ([5]; dose 20 mg/kg) [%] | mortality at 240 h ([5]; dose 25 mg/kg) [%] | mortality at 240 h ([5]; dose 28 mg/kg) [%] | Caecum, autopsic examination ([6]; in vivo, po) | Liver, macroscopic and microscopic examination ([6]; in vivo, po) | Jejunum, autopsic examination [6, 7] | Stomach, autopsic examination [1, 8] | Stomach, autopsic examination [1, 7] | Large intestine (caecum), autopsic examination [6, 8] | Small intestine (jejunum), autopsic examination [6, 8] | Caecum, autopsic examination [6, 7]
1 | COc1ccc2c(c1)c(CC(=O)OC1OC(=O)c3ccccc31)c(C)n2C(=O)c1ccc(Cl)cc1 (stereo not shown) [Product B, 1-(p-chlorobenzoyl)-5-methoxy-2-methyl indole-3-acetic acid 3-oxo-1-isobenzofuranyl ester] | No considerable alteration at stomach level | quite superior | 45 | remarkably more precocious, as well as more marked | signficantly more active, doses being equal, than the comparison product (Product A) within the first three hours | lesser than the one of the free acid | only a slight gastroenteric hyperemia, but no ulcer | 20 | 40 | 50 | 60 | 70 | None at caecum level | nothing pathological resulted | Jejunum slightly hyperemic | – | – | – | – | –
2 | COc1ccc2c(c1)c(CC(=O)O)c(C)n2C(=O)c1ccc(Cl)cc1 [Product A, 1-(p-chlorobenzoyl)-5-methoxy-2-methylindole-3-acetic acid, reference compound] | – | – | ≤ 30 | – | – | – | very marked gastroenteric hyperemia with presence of numerous ulcers | 40 | 70 | 90 | 100 | 100 | – | – | Jejunum diffusely hyperemic | Stomach diffusely hyperemic | Stomach highly hyperemic with presence of evident macroulcers | highly hyperemic | slightly hyperemic, with presence of microulcers | Caecum with hemorrhagic microareas
